Active and inactive are the calls of the source. The rule behind the calls is not given here.
Tests used:
A549 [1] = assay: Photodynamic antitumor activity against human A549 cells assessed as inhibition of cell growth at 0.001 to 30 uM incubated for 60 mins followed by compound washout and light irradiation measured after 72 hrs by MTT assay; assay type: functional, cell-based; settings: dose 0.001-30 µM
U-87 MG [2] = assay: Photodynamic antitumor activity against human U87 cells assessed as inhibition of cell growth at 0.001 to 30 uM incubated for 60 mins followed by compound washout and light irradiation measured after 72 hrs by MTT assay; assay type: functional, cell-based; settings: U-87MG ATCC, dose 0.001-30 µM
[3] = target: Carbonic anhydrase 9 (Homo sapiens) (UniProt Q16790); assay: Inhibition of carbonic anhydrase IX in human U87 cells assessed as downregulation of CAIX expression at 1 uM incubated for 60 mins followed by compound washout and 540 nm light irradiation measured after 15 mins by Western blotting analysis; assay type: cell-based
A549 [4] = assay: Photodynamic antitumor activity against human A549 cells assessed as inhibition of cell growth incubated for 60 mins followed by compound washout and light irradiation measured after 72 hrs by MTT assay; assay type: functional, cell-based; settings: A549, light or radiation study
U-87 MG [5] = assay: Photodynamic antitumor activity against human U87 cells assessed as inhibition of cell growth incubated for 60 mins followed by compound washout and light irradiation measured after 72 hrs by MTT assay; assay type: functional, cell-based, U-87MG ATCC; settings: light or radiation study
A549 [6] = assay: Antitumor activity against human A549 cells assessed as inhibition of cell growth at 0.001 to 30 uM incubated for 60 mins by MTT assay; assay type: functional, cell-based; settings: dose 0.001-30 µM
U-87 MG [7] = assay: Antitumor activity against human U87 cells assessed as inhibition of cell growth at 0.001 to 30 uM incubated for 60 mins by MTT assay; assay type: functional, cell-based; settings: U-87MG ATCC, dose 0.001-30 µM
[8] = target: Carbonic anhydrase 9 (Homo sapiens) (UniProt Q16790); assay: Inhibition of carbonic anhydrase IX in human U87 cells assessed as downregulation of CAIX expression at 1 uM incubated for 60 mins by Western blotting analysis; assay type: cell-based
[9] = target: Carbonic anhydrase 9 (Homo sapiens) (UniProt Q16790); assay: Inhibition of carbonic anhydrase IX in human A549 cells assessed as downregulation of CAIX expression at 1 uM incubated for 60 mins followed by compound washout and 540 nm light irradiation measured after 15 mins by Western blotting analysis; assay type: cell-based
[10] = target: Carbonic anhydrase 9 (Homo sapiens) (UniProt Q16790); assay: Inhibition of carbonic anhydrase IX in human A549 cells assessed as downregulation of CAIX expression at 1 uM incubated for 60 mins by Western blotting analysis; assay type: cell-based
4T1 [11] = assay: Photodynamic antitumor activity against mouse 4T1 cells implanted mouse model assessed as increase in tumor necrosis at 5 mg/kg,TOP administration followed by light irradiation measured after 12 days; assay type: functional, organism-based; settings: time 12.0 day
4T1 [12] = assay: Photodynamic antitumor activity against mouse 4T1 cells implanted mouse model assessed as reduction in tumor growth at 5 mg/kg,TOP administration measured after 12 days; assay type: functional, organism-based; settings: time 12.0 day
4T1 [13] = assay: Photodynamic antitumor activity against mouse 4T1 cells implanted mouse model assessed as increase in tumor degeneration at 5 mg/kg,TOP administration followed by light irradiation measured after 12 days; assay type: functional, organism-based; settings: time 12.0 day
U-87 MG [14] = assay: Photodynamic antitumor activity against human U87 cells assessed as increase in ATP release incubated for 1 hr followed by compound washout and 540 nm light irradiation measured upto 10 mins by luciferase assay; assay type: functional, cell-based; settings: U-87MG ATCC
[15] = Toxicity in mouse implanted with mouse 4T1 cells assessed as change in body weight at 5 mg/kg,TOP administration followed by light irradiation measured after 12 days; assay type: organism-based; settings: in vivo, topical_or_ocular, 288 h, time 12 day
U-87 MG [16] = assay: Photodynamic antitumor activity against human U87 cells assessed as inhibition of cell growth at 1 uM incubated for 60 mins followed by compound washout and addition of ROS scavenger NaN3 and light irradiation measured after 72 hrs by MTT assay; assay type: functional, cell-based; settings: U-87MG ATCC
U-87 MG [17] = assay: Photodynamic antitumor activity against human U87 cells assessed as inhibition of cell growth at 1 uM incubated for 60 mins followed by compound washout and addition of ROS scavenger NaN3 upto 30 uM and light irradiation measured after 72 hrs by MTT assay; assay type: functional, cell-based; settings: U-87MG ATCC
U-87 MG [18] = assay: Photodynamic antitumor activity against human U87 cells assessed as inhibition of cell growth at 1 uM incubated for 60 mins followed by compound washout and addition of ROS scavenger D-mannitol and light irradiation measured after 72 hrs by MTT assay; assay type: functional, cell-based; settings: U-87MG ATCC
4T1 [19] = assay: Photodynamic antitumor activity against mouse 4T1 cells implanted mouse model assessed as reduction in tumor growth at 5 mg/kg,TOP administration followed by light irradiation measured after 12 days; assay type: functional, organism-based; settings: time 12.0 day
U-87 MG [20] = assay: Photodynamic antitumor activity against human U87 cells assessed as inhibition of cell growth at 1 uM incubated for 60 mins followed by compound washout and addition of ROS scavenger NaP and light irradiation measured after 72 hrs by MTT assay; assay type: functional, cell-based; settings: U-87MG ATCC
[21] = target: Carbonic anhydrase 9 (Homo sapiens) (UniProt Q16790); assay: Inhibition of carbonic anhydrase IX in human U87 cells assessed as downregulation of CAIX expression at 1 uM incubated for 60 mins followed by compound washout and 540 nm light irradiation measured after 15 mins by Hoechst 33342 staining based immunostaining analysis; assay type: cell-based
[22] = target: Carbonic anhydrase 9 (Homo sapiens) (UniProt Q16790); assay: Inhibition of carbonic anhydrase IX in human U87 cells assessed as nuclear localization of CAIX at 1 uM incubated for 60 mins followed by compound washout and 540 nm light irradiation measured after 15 mins by Hoechst 33342 staining based immunostaining analysis; assay type: cell-based
[23] = Toxicity in mouse implanted with mouse 4T1 cells assessed as change in body weight at 5 mg/kg,TOP administration measured after 12 days; assay type: organism-based; settings: in vivo, topical_or_ocular, 288 h, time 12 day
U-87 MG [24] = assay: Photodynamic antitumor activity against human U87 cells assessed as inhibition of cell growth at 1 uM incubated for 60 mins followed by compound washout and addition of ROS scavenger Tiron and light irradiation measured after 72 hrs by MTT assay; assay type: functional, cell-based; settings: U-87MG ATCC
U-87 MG [25] = assay: Photodynamic antitumor activity against human U87 cells assessed as inhibition of cell growth at 1 uM incubated for 60 mins followed by compound washout and addition of ROS scavenger Trolox and light irradiation measured after 72 hrs by MTT assay; assay type: functional, cell-based; settings: U-87MG ATCC

Structure (SMILES)	Activity (A549 [1])	Activity (U-87 MG [2])	inhibition [3]	IC50 (A549 [4])	IC50 (U-87 MG [5])	Activity (A549 [6])	Activity (U-87 MG [7])	inhibition [8]	inhibition [9]	inhibition [10]	further results
Cc1c(Br)c(C)n2c1C=C1C=C(Br)C(CCC(=O)NCCCCCCNC(=O)c3ccc(S(N)(=O)=O)cc3)=[N+]1[B-]2(F)F	Dose-Dependent Effect	Dose-Dependent Effect	Active	400 nM	300 nM	inactive	inactive	inactive	Active	inactive	
Cc1cc(C)n2c1C=C1C=CC(CCC(=O)NCCCCCCNC(=O)c3ccc(S(N)(=O)=O)cc3)=[N+]1[B-]2(F)F				21300 nM	18900 nM						
Cc1c(I)c(C)n2c1C=C1C=C(I)C(CCC(=O)NCCCCCCNC(=O)c3ccc(S(N)(=O)=O)cc3)=[N+]1[B-]2(F)F	Dose-Dependent Effect	Dose-Dependent Effect	Active	200 nM	50 nM	inactive	inactive	inactive	Active	inactive	Activity (4T1 [11]): Active; Activity (4T1 [12]): inactive; Activity (4T1 [13]): Active; Activity (U-87 MG [14]): Active; Activity [15]: Non-Toxic; Activity (U-87 MG [16]): inactive; Activity (U-87 MG [17]): inactive; Activity (U-87 MG [18]): Active; Activity (4T1 [19]): Active; Activity (U-87 MG [20]): Active; inhibition [21]: Active; inhibition [22]: Active; Activity [23]: Non-Toxic; Activity (U-87 MG [24]): Active; Activity (U-87 MG [25]): Active
